Data as given in patent US11000033B2, “Ketone or oxime compound, and herbicide” (NISSAN CHEMICAL CORPORATION, priority 2014, dated 2021).

Key:
Assay type in all cases: in vivo
Galium spurium = assay: Test Example 5: herbicidal effect by foliage application, plastic box (symbol Q); conditions: 320 g/ha, 3 weeks after application
Summary of the method: (§1)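 Herbicide, formulated as an emulsion and diluted in water, is sprayed onto the aerial parts of 14-day seedlings. These were grown at 25° C. to 30° C. in sterilized diluvial soil; effects are graded after 3 weeks.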

Veronica persica = assay: Test Example 5: herbicidal effect by foliage application, plastic box (symbol R); conditions: 320 g/ha, 3 weeks after application
Summary of the method: as §1

Monochoria vaginalis = assay: Test Example 2: herbicidal activity, application during weed generation in submerged conditions (symbol C); conditions: Table 23; application herbicide amount 320 g/ha; grade 0-5 by criteria of Test Example 1
Summary of the method: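 Steps: fill pots with alluvial soil; add water to 4 cm depth; co-sow the three weeds; grow at 25° C. to 30° C. under glass; at 1–2 leaves, dose the floodwater with diluted emulsion; rate damage visually after 3 weeks.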

rice = assay: Test Example 4: effect on crop by soil treatment (symbol b); conditions: application herbicide amount 320 g/ha
Summary of the method: (§2)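 Plants grew in a 25° C. to 30° C. greenhouse after spot-sowing of seeds, including beet, rapeseed, wheat and rice, into sterilized diluvial soil under roughly 1.5 cm of cover soil.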

Chenopodium album = assay: Test Example 5: herbicidal effect by foliage application, plastic box (symbol O); conditions: 320 g/ha, 3 weeks after application
Summary of the method: as §1

Apera spica-venti [1] = assay: Test Example 5: herbicidal effect by foliage application, plastic box (symbol L); conditions: 320 g/ha, 3 weeks after application
Summary of the method: as §1

[2] = tested on: directly sowed rice plant; assay: Test Example 3: effect on crop by foliage application, Wagner pot (symbol b); conditions: application herbicide amount 320 g/ha
Summary of the method: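 Greenhouse culture at 25–30 °C of seeded rice, Cyperus difformis, Leptochloa chinensis and Echinochloa crus-galli var. crus-galli, in alluvial soil held under 0.1–0.5 cm of water in a Wagner pot.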

Apera spica-venti [3] = assay: Test Example 4: herbicidal effect by soil treatment (symbol L); conditions: application herbicide amount 320 g/ha
Summary of the method: (§3)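 Seeds were sown in sterilized diluvial soil, covered with about 1.5 cm of soil, and the soil surface was sprayed with a water-diluted emulsion of the compound at a predetermined rate. Plants grew in a greenhouse at 25° C. to 30° C.; effects were scored visually 3 weeks after application.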

Digitaria ciliaris [4] = assay: Test Example 4: herbicidal effect by soil treatment (symbol F); conditions: application herbicide amount 320 g/ha
Summary of the method: as §3

[5] = tested on: Echinochloa crus-galli var. crus-galli; assay: Test Example 4: herbicidal effect by soil treatment (symbol H); conditions: application herbicide amount 320 g/ha
Summary of the method: as §3

Lolium multiflorum Lam. [6] = assay: Test Example 5: herbicidal effect by foliage application, plastic box (symbol K); conditions: 320 g/ha, 3 weeks after application
Summary of the method: as §1

Lolium multiflorum Lam. [7] = assay: Test Example 4: herbicidal effect by soil treatment (symbol K); conditions: application herbicide amount 320 g/ha
Summary of the method: as §3

Stellaria media = assay: Test Example 5: herbicidal effect by foliage application, plastic box (symbol P); conditions: 320 g/ha, 3 weeks after application
Summary of the method: as §1

Digitaria ciliaris [8] = assay: Test Example 5: herbicidal effect by foliage application, plastic box (symbol F); conditions: 320 g/ha, 3 weeks after application
Summary of the method: as §1

rapeseed [9] = assay: Test Example 4: effect on crop by soil treatment (symbol g); conditions: application herbicide amount 320 g/ha
Summary of the method: as §2

beet = assay: Test Example 4: effect on crop by soil treatment (symbol f); conditions: application herbicide amount 320 g/ha
Summary of the method: as §2

wheat = assay: Test Example 5: effect on crop by foliage application, plastic box (symbol e); conditions: 320 g/ha, 3 weeks after application
Summary of the method: (§4)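 Box culture: sterile diluvial soil, seeds spot-sown, ~1.5 cm cover, raised under glass at 25–30° C.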

Avena fatua [10] = assay: Test Example 4: herbicidal effect by soil treatment (symbol I); conditions: application herbicide amount 320 g/ha
Summary of the method: as §3

rapeseed [11] = assay: Test Example 5: effect on crop by foliage application, plastic box (symbol g); conditions: 320 g/ha, 3 weeks after application
Summary of the method: as §4

Abutilon theophrasti = assay: Test Example 5: herbicidal effect by foliage application, plastic box (symbol M); conditions: 320 g/ha, 3 weeks after application
Summary of the method: as §1

Amaranthus retroflexus = assay: Test Example 5: herbicidal effect by foliage application, plastic box (symbol N); conditions: 320 g/ha, 3 weeks after application
Summary of the method: as §1

Avena fatua [12] = assay: Test Example 5: herbicidal effect by foliage application, plastic box (symbol I); conditions: 320 g/ha, 3 weeks after application
Summary of the method: as §1

Alopecurus myosuroides = assay: Test Example 4: herbicidal effect by soil treatment (symbol J); conditions: application herbicide amount 320 g/ha
Summary of the method: as §3

CON=C(C)CC1CC(OC(=O)CCCC(C)=O)=C(c2c(C)cc(-c3ccc(Cl)cc3)cc2C)C1=O (stereo not drawn) [6-080]
Q: Galium spurium, herbicidal effect (criteria of Test Example 1) (Galium spurium): 4 (Herbicidal ratio of 70% or higher and lower than 90%) | R: Veronica persica, herbicidal effect (criteria of Test Example 1) (Veronica persica): 4 (Herbicidal ratio of 70% or higher and lower than 90%) | Herbicidal effect grade, C: Monochoria vaginalis (Monochoria vaginalis): 3 (Herbicidal ratio of 40% or higher and lower than 70%) | b: directly sowed rice plant, effect on crop grade (rice): 0 (Herbicidal ratio of 5% or lower (almost no effect)) | O: Chenopodium album, herbicidal effect (criteria of Test Example 1) (Chenopodium album): 0 (Herbicidal ratio of 5% or lower (almost no effect)) | L: Apera spica-venti, herbicidal effect (criteria of Test Example 1) (Apera spica-venti [1]): 5 (Herbicidal ratio of 90% or more (almost completely withered)) | effect on crop b (directly sowed rice plant), grade 0-5 [2]: 5 (Herbicidal ratio of 90% or more (almost completely withered)) | L: Apera spica-venti, herbicidal effect grade (Apera spica-venti [3]): 5 (Herbicidal ratio of 90% or more (almost completely withered)) | F: Digitaria ciliaris, herbicidal effect grade (Digitaria ciliaris [4]): 5 (Herbicidal ratio of 90% or more (almost completely withered)) | H: Echinochloa crus-galli var. crus-galli, herbicidal effect grade [5]: 5 (Herbicidal ratio of 90% or more (almost completely withered)) | K: Lolium multiflorum Lam., herbicidal effect (criteria of Test Example 1) (Lolium multiflorum Lam. [6]): 5 (Herbicidal ratio of 90% or more (almost completely withered)) | K: Lolium multiflorum Lam., herbicidal effect grade (Lolium multiflorum Lam. [7]): 5 (Herbicidal ratio of 90% or more (almost completely withered)) | P: Stellaria media, herbicidal effect (criteria of Test Example 1) (Stellaria media): 0 (Herbicidal ratio of 5% or lower (almost no effect)) | F: Digitaria ciliaris, herbicidal effect (criteria of Test Example 1) (Digitaria ciliaris [8]): 5 (Herbicidal ratio of 90% or more (almost completely withered)) | g: rapeseed, effect on crop grade (rapeseed [9]): 0 (Herbicidal ratio of 5% or lower (almost no effect)) | f: beet, effect on crop grade (beet): 0 (Herbicidal ratio of 5% or lower (almost no effect)) | e: wheat, effect on crop (criteria of Test Example 1) (wheat): 5 (Herbicidal ratio of 90% or more (almost completely withered)) | I: Avena fatua, herbicidal effect grade (Avena fatua [10]): 0 (Herbicidal ratio of 5% or lower (almost no effect)) | g: rapeseed, effect on crop (criteria of Test Example 1) (rapeseed [11]): 3 (Herbicidal ratio of 40% or higher and lower than 70%) | M: Abutilon theophrasti, herbicidal effect (criteria of Test Example 1) (Abutilon theophrasti): 4 (Herbicidal ratio of 70% or higher and lower than 90%) | N: Amaranthus retroflexus, herbicidal effect (criteria of Test Example 1) (Amaranthus retroflexus): 0 (Herbicidal ratio of 5% or lower (almost no effect)) | I: Avena fatua, herbicidal effect (criteria of Test Example 1) (Avena fatua [12]): 5 (Herbicidal ratio of 90% or more (almost completely withered)) | J: Alopecurus myosuroides, herbicidal effect grade (Alopecurus myosuroides): 5 (Herbicidal ratio of 90% or more (almost completely withered))

CON=C(C)CC1CC(O)=C(c2c(C)cc(-c3ccccn3)cc2C)C1=O (mixture of isomers) [6-051]
Q: Galium spurium, herbicidal effect grade (Galium spurium): 4 (Herbicidal ratio of 70% or higher and lower than 90%) | R: Veronica persica, herbicidal effect grade (Veronica persica): 4 (Herbicidal ratio of 70% or higher and lower than 90%) | Herbicidal effect grade, C: Monochoria vaginalis (Monochoria vaginalis): 2 (Herbicidal ratio of 20% or higher and lower than 40%) | b: directly sowed rice plant, effect on crop grade (rice): 5 (Herbicidal ratio of 90% or more (almost completely withered)) | O: Chenopodium album, herbicidal effect grade (Chenopodium album): 5 (Herbicidal ratio of 90% or more (almost completely withered)) | L: Apera spica-venti, herbicidal effect grade (Apera spica-venti [1]): 5 (Herbicidal ratio of 90% or more (almost completely withered)) | effect on crop b (directly sowed rice plant), grade 0-5 [2]: 5 (Herbicidal ratio of 90% or more (almost completely withered)) | L: Apera spica-venti, herbicidal effect grade (Apera spica-venti [3]): 5 (Herbicidal ratio of 90% or more (almost completely withered)) | F: Digitaria ciliaris, herbicidal effect grade (Digitaria ciliaris [4]): 5 (Herbicidal ratio of 90% or more (almost completely withered)) | H: Echinochloa crus-galli var. crus-galli, herbicidal effect grade [5]: 5 (Herbicidal ratio of 90% or more (almost completely withered)) | K: Lolium multiflorum Lam., herbicidal effect grade (Lolium multiflorum Lam. [6]): 5 (Herbicidal ratio of 90% or more (almost completely withered)) | K: Lolium multiflorum Lam., herbicidal effect grade (Lolium multiflorum Lam. [7]): 5 (Herbicidal ratio of 90% or more (almost completely withered)) | P: Stellaria media, herbicidal effect grade (Stellaria media): 4 (Herbicidal ratio of 70% or higher and lower than 90%) | F: Digitaria ciliaris, herbicidal effect grade (Digitaria ciliaris [8]): 5 (Herbicidal ratio of 90% or more (almost completely withered)) | g: rapeseed, effect on crop grade (rapeseed [9]): 4 (Herbicidal ratio of 70% or higher and lower than 90%) | f: beet, effect on crop grade (beet): 0 (Herbicidal ratio of 5% or lower (almost no effect)) | e: wheat, effect on crop grade (wheat): 4 (Herbicidal ratio of 70% or higher and lower than 90%) | I: Avena fatua, herbicidal effect grade (Avena fatua [10]): 1 (Herbicidal ratio of 5% or higher and lower than 20%) | g: rapeseed, effect on crop grade (rapeseed [11]): 5 (Herbicidal ratio of 90% or more (almost completely withered)) | M: Abutilon theophrasti, herbicidal effect grade (Abutilon theophrasti): 1 (Herbicidal ratio of 5% or higher and lower than 20%) | N: Amaranthus retroflexus, herbicidal effect grade (Amaranthus retroflexus): 3 (Herbicidal ratio of 40% or higher and lower than 70%) | I: Avena fatua, herbicidal effect grade (Avena fatua [12]): 4 (Herbicidal ratio of 70% or higher and lower than 90%) | J: Alopecurus myosuroides, herbicidal effect grade (Alopecurus myosuroides): 5 (Herbicidal ratio of 90% or more (almost completely withered))

COC(=O)CON=C(C)CC1CC(O)=C(c2c(C)cc(C)cc2C)C1=O (stereo not drawn) [1-023]
Q: Galium spurium, herbicidal effect grade (Galium spurium): 2 (Herbicidal ratio of 20% or higher and lower than 40%) | R: Veronica persica, herbicidal effect grade (Veronica persica): 0 (Herbicidal ratio of 5% or lower (almost no effect)) | Herbicidal effect grade, C: Monochoria vaginalis (Monochoria vaginalis): 0 (Herbicidal ratio of 5% or lower (almost no effect)) | b (directly sowed rice plant) effect on crop grade (rice): 5 (Herbicidal ratio of 90% or more (almost completely withered)) | O: Chenopodium album, herbicidal effect grade (Chenopodium album): 0 (Herbicidal ratio of 5% or lower (almost no effect)) | L: Apera spica-venti, herbicidal effect grade (Apera spica-venti [1]): 4 (Herbicidal ratio of 70% or higher and lower than 90%) | effect on crop b (directly sowed rice plant), grade 0-5 [2]: 4 (Herbicidal ratio of 70% or higher and lower than 90%) | L (Apera spica-venti) herbicidal effect grade (Apera spica-venti [3]): 4 (Herbicidal ratio of 70% or higher and lower than 90%) | F (Digitaria ciliaris) herbicidal effect grade (Digitaria ciliaris [4]): 4 (Herbicidal ratio of 70% or higher and lower than 90%) | H (Echinochloa crus-galli var. crus-galli) herbicidal effect grade [5]: 3 (Herbicidal ratio of 40% or higher and lower than 70%) | K: Lolium multiflorum Lam., herbicidal effect grade (Lolium multiflorum Lam. [6]): 4 (Herbicidal ratio of 70% or higher and lower than 90%) | K (Lolium multiflorum Lam.) herbicidal effect grade (Lolium multiflorum Lam. [7]): 3 (Herbicidal ratio of 40% or higher and lower than 70%) | P: Stellaria media, herbicidal effect grade (Stellaria media): 0 (Herbicidal ratio of 5% or lower (almost no effect)) | F: Digitaria ciliaris, herbicidal effect grade (Digitaria ciliaris [8]): 2 (Herbicidal ratio of 20% or higher and lower than 40%) | g (rapeseed) effect on crop grade (rapeseed [9]): 0 (Herbicidal ratio of 5% or lower (almost no effect)) | f (beet) effect on crop grade (beet): 0 (Herbicidal ratio of 5% or lower (almost no effect)) | e: wheat, effect on crop grade (wheat): 0 (Herbicidal ratio of 5% or lower (almost no effect)) | I (Avena fatua) herbicidal effect grade (Avena fatua [10]): 0 (Herbicidal ratio of 5% or lower (almost no effect)) | g: rapeseed, effect on crop grade (rapeseed [11]): 2 (Herbicidal ratio of 20% or higher and lower than 40%) | M: Abutilon theophrasti, herbicidal effect grade (Abutilon theophrasti): 0 (Herbicidal ratio of 5% or lower (almost no effect)) | N: Amaranthus retroflexus, herbicidal effect grade (Amaranthus retroflexus): 0 (Herbicidal ratio of 5% or lower (almost no effect)) | I: Avena fatua, herbicidal effect grade (Avena fatua [12]): 1 (Herbicidal ratio of 5% or higher and lower than 20%) | J (Alopecurus myosuroides) herbicidal effect grade (Alopecurus myosuroides): 0 (Herbicidal ratio of 5% or lower (almost no effect))
